Data taken from patent US8865734B2 (priority 2010, dated 2014).
Values after ≈ are worked out from the molar mass of the structure shown.

Assays:
[1] = tested on: M. tuberculosis inside the host macrophage; experiment: QIM: Quantification of Intracellular Mycobacteria (intracellular growth assay, phenotypic cell-based); conditions: Mycobacterium tuberculosis; MIC, 80% bacterial growth inhibition; intracellular growth; read-out: QIM
Procedure, shortened: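 Phenotypic high-content assay measuring M. tuberculosis multiplication inside host macrophages, run as dose response. MIC is the minimum compound concentration giving 80% bacterial growth inhibition.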

[2] = tested on: in vitro grown Mycobacteria (M. tuberculosis); experiment: QUM: Quantification of in vitro grown Mycobacteria (in vitro growth fluorescence assay); format: cell-based; conditions: Mycobacterium tuberculosis; MIC, 80% bacterial growth inhibition; in vitro growth; read-out: QUM
Procedure, shortened: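 Mycobacterium tuberculosis grown in vitro was quantified by fluorescence across compound dose responses. MIC is defined as the minimum concentration producing 80% growth inhibition.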

SMILES | melting point | MIC [1] | MIC [2]
CCc1nc2ccc(Cl)cn2c1C(=O)NCc1ccc(N2CC(C)CC(C)C2)cc1 (stereo not drawn) [Compound 216, 6-Chloro-N-(4-(3,5-dimethylpiperidin-1-yl)benzyl)-2-ethylimidazo[1,2-a]pyridine-3-carboxamide] | 157.2 to 158 °C | < 1 µM | < 1 µM
CCc1nc2ccccn2c1C(=O)NCc1ccc(/N=C/c2ccc(OC(F)(F)F)cc2)cc1 [Compound 261] | 194 °C | > 20 µM | > 20 µM
CCc1nc2ccc(Cl)cn2c1C(=O)OCc1ccc(Oc2ccccc2)cc1 [Compound 196, 4-Phenoxybenzyl 6-chloro-2-ethylimidazo[1,2-a]pyridine-3-carboxylate] | 123.3 to 123.8 °C | < 1 µM | 1 to 20 µM (≈ 0.407 to 8.14 µg/mL)
CCc1nc2ccc(Cl)cn2c1CNc1ccc(N2CCN(c3ccc(F)cc3)CC2)cc1 [Compound 241, N-((6-Chloro-2-ethylimidazo[1,2-a]pyridin-3-yl)methyl)-4-(4-(4-fluorophenyl)piperazin-1-yl)aniline] | 191 to 192 °C | > 20 µM | > 20 µM
CCc1nc2cc(N3CCN(c4ccccc4)CC3)ccn2c1C(=O)NCc1ccc(C(F)(F)F)cc1 [Compound 330, 2-Ethyl-7-(4-phenylpiperazin-1-yl)-N-(4-(trifluoromethyl)benzyl)imidazo[1,2-a]pyridine-3-carboxamide] | 235.2 °C | < 1 µM | > 20 µM
CCc1nc2cc(Br)ccn2c1C(=O)NCc1ccc(N2CCOCC2)cc1 [Compound 324, 7-Bromo-2-ethyl-N-(4-morpholinobenzyl)imidazo[1,2-a]pyridine-3-carboxamide] | 202.6 °C | < 1 µM | < 1 µM
CCc1nc2ccc(Cl)cn2c1C(=O)NCC1CCN(Cc2ccc(OC(F)(F)F)cc2)CC1 [Compound 226, 6-Chloro-2-ethyl-N-((1-(4-(trifluoromethoxy)benzyl)piperidin-4-yl)methyl)imidazo[1,2-a]pyridine-3-carboxamide] | 171 to 172 °C | < 1 µM | < 1 µM
CCc1nc2cc(Cl)ccn2c1C(=O)NCc1ccc(N2CCC(O)CC2)cc1 [Compound 218, 7-Chloro-2-ethyl-N-(4-(4-hydroxypiperidin-1-yl)benzyl)imidazo[1,2-a]pyridine-3-carboxamide] | 179.1 to 180 °C | > 20 µM | < 1 µM
CCc1nc2cc(Cl)ccn2c1C(=O)NCc1ccc(NCc2ccc(OC(F)(F)F)cc2)cc1 [Compound 262] | 169.6 °C | < 1 µM | < 1 µM
CCc1nc2cc(Br)ccn2c1C(=O)NCc1ccc(N2CCN(c3ccc(F)cc3)CC2)cc1 [Compound 311, 7-Bromo-2-ethyl-N-(4-(4-(4-fluorophenyl)piperazin-1-yl)benzyl)imidazo[1,2-a]pyridine-3-carboxamide] | 214.6 °C | < 1 µM | < 1 µM
CCc1nc2cc(Cl)ccn2c1C(=O)NCc1ccc(N2CCCCC2C)cc1 (stereo not drawn) [Compound 273, 7-chloro-2-ethyl-N-(4-(2-methylpiperidin-1-yl)benzyl)imidazo[1,2-a]pyridine-3-carboxamide] | 117.9 °C | < 1 µM | < 1 µM
CCc1nc2ccc(Cl)cn2c1C(=O)NCc1ccc(N2CCC(COC)CC2)cc1 [Compound 281, 6-Chloro-2-ethyl-N-(4-(4-(methoxymethyl)piperidin-1-yl)benzyl)imidazo[1,2-a]pyridine-3-carboxamide] | 162.1 °C | < 1 µM | < 1 µM
CCc1nc2cc(N3CCN(C)CC3)ccn2c1C(=O)NCc1ccc(N2CCOCC2)cc1 [Compound 328, 2-Ethyl-7-(4-methylpiperazin-1-yl)-N-(4-morpholinobenzyl)imidazo[1,2-a]pyridine-3-carboxamide] | 204.8 °C | > 20 µM | > 20 µM
CCc1nc2ccc(Cl)cn2c1C(=O)NCc1ccc(N2CCN(Cc3ccc(OC(F)(F)F)cc3)CC2)cc1 [Compound 173, 6-Chloro-2-ethyl-N-(4-(4-(4-(trifluoromethoxy)benzyl)piperazin-1-yl)benzyl)imidazo[1,2-a]pyridine-3-carboxamide] | 138.1 to 138.7 °C | < 1 µM | < 1 µM
CCc1nc2ccc(Cl)cn2c1-c1nc(Cc2ccc(OC(F)(F)F)cc2)no1 [Compound 243, 5-(6-Chloro-2-ethylimidazo[1,2-a]pyridin-3-yl)-3-(4-(trifluoromethoxy)benzyl)-1,2,4-oxadiazole] | 146.4 to 146.9 °C | > 20 µM | > 20 µM
CCc1nc2c[n+]([O-])ccn2c1C(=O)NCc1ccc(-c2ccc(Cl)cc2)cc1 [Compound 160, 3-(((4′-Chloro-[1,1′-biphenyl]-4-yl)methyl)carbamoyl)-2-ethylimidazo[1,2-a]pyrazine 7-oxide] | 238 °C | > 20 µM | > 20 µM

SMILES | melting point | MIC [1] | MIC [2]
CCc1nc2ccc(Cl)cn2c1C(=O)NCc1ccc(Oc2ccc(OC(F)(F)F)cc2)nc1 [Compound 194, 6-Chloro-2-ethyl-N-((6-(4-(trifluoromethoxy)phenoxy)pyridin-3-yl)methyl)imidazo[1,2-a]pyridine-3-carboxamide] | 154 to 155 °C | < 1 µM | 1 to 20 µM (≈ 0.491 to 9.82 µg/mL)
CCc1nc2ccc(Br)cn2c1C(=O)NCc1ccc(N2CCN(c3ccc(F)cc3)CC2)cc1 [Compound 307, 6-Bromo-2-ethyl-N-(4-(4-(4-fluorophenyl)piperazin-1-yl)benzyl)imidazo[1,2-a]pyridine-3-carboxamide] | 218.1 °C | < 1 µM | < 1 µM
CCc1nc2cc(Cl)ccn2c1C(=O)NCc1ccc(N2CCOCC2)cc1 [Compound 89, 7-Chloro-2-ethyl-N-(4-morpholinobenzyl)imidazo[1,2-a]pyridine-3-carboxamide] | 195 °C | 1 to 20 µM (≈ 0.399 to 7.98 µg/mL) | < 1 µM
CCc1nc2cc(N3CCN(Cc4ccc(F)cc4)CC3)ccn2c1C(=O)NCc1ccc(N2CCOCC2)cc1 [Compound 331, 2-Ethyl-7-(4-(4-fluorobenzyl)piperazin-1-yl)-N-(4-morpholinobenzyl)imidazo[1,2-a]pyridine-3-carboxamide] | 212.5 °C | > 20 µM | > 20 µM
CCc1nc2cc(-c3cccnc3)ccn2c1C(=O)NCc1ccc(N2CCOCC2)cc1 [Compound 326, 2-Ethyl-N-(4-morpholinobenzyl)-7-(pyridin-3-yl)imidazo[1,2-a]pyridine-3-carboxamide] | 208.5 °C | > 20 µM | > 20 µM
CCc1nc2ccc(Cl)cn2c1C(=O)OCc1ccc(-c2ccccc2)cc1 [Compound 161, [1,1′-Biphenyl]-4-ylmethyl 6-chloro-2-ethylimidazo[1,2-a]pyridine-3-carboxylate] | 122.3 to 123 °C | < 1 µM | < 1 µM
CCc1nc2cc(C)ccn2c1C(=O)NCc1ccc(Oc2ccc(OC(F)(F)F)cc2)cc1 [Compound 256, 2-Ethyl-7-methyl-N-(4-(4-(trifluoromethoxy)phenoxy)benzyl)imidazo[1,2-a]pyridine-3-carboxamide] | 133.6 °C |  | < 1 µM
CCc1nc2cc(Cl)ccn2c1C(=O)NCc1ccc(N2CCC(Cc3ccccc3)CC2)cc1 [Compound 294, N-(4-(4-Benzylpiperidin-1-yl)benzyl)-7-chloro-2-ethylimidazo[1,2-a]pyridine-3-carboxamide] | 63.8 °C |  | 1 to 20 µM (≈ 0.487 to 9.74 µg/mL)
CCc1nc2ccc(C)cn2c1C(=O)NCc1ccc(N2CCN(c3ccc(F)cc3)CC2)cc1 [Compound 308, 2-Ethyl-N-(4-(4-(4-fluorophenyl)piperazin-1-yl)benzyl)-6-methylimidazo[1,2-a]pyridine-3-carboxamide] | 187.6 °C |  | < 1 µM
CCc1nc2cc(Cl)ccn2c1C(=O)NCc1ccc(N2CCC(COc3ccc(OC(F)(F)F)cc3)CC2)cc1 [Compound 299, 7-Chloro-2-ethyl-N-(4-(4-((4-(trifluoromethoxy)phenoxy)methyl)piperidin-1-yl)benzyl)imidazo[1,2-a]pyridine-3-carboxamide] | 189.5 °C |  | < 1 µM
CCc1nc2cc(Cl)ccn2c1C(=O)NCc1ccc(N2CCC(O)(c3ccc(F)cc3)CC2)cc1 [Compound 342, 7-Chloro-2-ethyl-N-(4-(4-(4-fluorophenyl)-4-hydroxypiperidin-1-yl)benzyl)imidazo[1,2-a]pyridine-3-carboxamide] | 199 °C |  | < 1 µM
CCc1nc2ccc(C(F)(F)F)cn2c1C(=O)NCc1ccc(N2CCOCC2)cc1 [Compound 321, 2-Ethyl-N-(4-morpholinobenzyl)-6-(trifluoromethyl)imidazo[1,2-a]pyridine-3-carboxamide] | 207.6 °C |  | < 1 µM
CCc1nc2ccc(Cl)cn2c1C(=O)NCc1ccc2oc(C3CCCCC3)nc2c1 [Compound 339, 6-Chloro-N-((2-cyclohexylbenzo[d]oxazol-5-yl)methyl)-2-ethylimidazo[1,2-a]pyridine-3-carboxamide] | 169.7 °C |  | < 1 µM
C=C1CCN(c2ccc(CNC(=O)c3c(CC)nc4cc(Cl)ccn34)cc2)CC1 [Compound 271, 7-Chloro-2-ethyl-N-(4-(4-methylenepiperidin-1-yl)benzyl)imidazo[1,2-a]pyridine-3-carboxamide] | 168.3 °C |  | < 1 µM
CCc1nc2ccc(Cl)cn2c1C(=O)NCc1ccc(N2CCOCC2)c(Cl)c1 [Compound 349, 6-Chloro-N-(3-chloro-4-morpholinobenzyl)-2-ethylimidazo[1,2-a]pyridine-3-carboxamide] | 175.5 °C |  | < 1 µM
